Data from ChEMBL document CHEMBL4811216, “Chemotherapy for human schistosomiasis: how far have we come? What's new? Where do we go from here?” (RSC Med Chem, 2020).

Assays:
Assay type in all cases: functional
[1] = system: Schistosoma mansoni; assay: Schistosomicidal-activity against Schistosoma mansoni LE assessed as seperation of worm couples at 25 uM measured within 120 hrs relative to control
[2] = system: Schistosoma mansoni; assay: Schistosomicidal-activity against Schistosoma mansoni LE assessed as reduction in motor activity at 50 uM measured after 120 hrs relative to control; design: scale not given: the % may be the effect or the level left
[3] = system: Schistosoma mansoni; assay: Antischistosomal activity against Schistosoma mansoni LE infected in BALB/c mouse assessed as reduction in egg burden at 10 mg/kg, ip administered for 5 consecutive days starting from day 1 post infection by microscopic method relative to control; design: scale not given: the % may be the effect or the level left
[4] = system: Schistosoma mansoni; assay: Antischistosomal activity against adult Schistosoma mansoni LE measured every 24 hrs for 72 hrs by inverted microscopy
[5] = system: Schistosoma mansoni; assay: Antischistosomal activity against Schistosoma mansoni LE infected in BALB/c mouse assessed as reduction in worm burden at 100 mg/kg, ip administered for 5 consecutive days starting from day 1 post infection by microscopic method relative to control; design: scale not given: the % may be the effect or the level left
[6] = system: Schistosoma mansoni; assay: Antischistosomal activity against Schistosoma mansoni LE infected in BALB/c mouse assessed as reduction in egg burden at 50 mg/kg, ip administered for 5 consecutive days starting from day 23 post infection by microscopic method relative to control; design: scale not given: the % may be the effect or the level left
[7] = system: Schistosoma mansoni; assay: Antischistosomal activity against Schistosoma mansoni LE infected in BALB/c mouse assessed as reduction in egg burden at 100 mg/kg, ip administered for 5 consecutive days starting from day 37 post infection by microscopic method relative to control; design: scale not given: the % may be the effect or the level left
[8] = system: Schistosoma mansoni; assay: Antischistosomal activity against juvenile Schistosoma mansoni LE measured every 24 hrs for 72 hrs by inverted microscopy
[9] = system: Schistosoma mansoni; assay: Antischistosomal activity against Schistosoma mansoni LE assessed as reduction in egg population at 100 uM measured after 72 hrs by inverted microscopy relative to control; design: scale not given: the % may be the effect or the level left
[10] = system: Schistosoma mansoni; assay: Antischistosomal activity against Schistosoma mansoni LE infected in BALB/c mouse assessed as reduction in egg burden at 100 mg/kg, ip administered for 5 consecutive days starting from day 23 post infection by microscopic method relative to control; design: scale not given: the % may be the effect or the level left
[11] = system: Schistosoma mansoni; assay: Antischistosomal activity against Schistosoma mansoni LE infected in BALB/c mouse assessed as reduction in worm burden at 50 mg/kg, ip administered for 5 consecutive days starting from day 1 post infection by microscopic method relative to control; design: scale not given: the % may be the effect or the level left
[12] = system: Schistosoma mansoni; assay: Antischistosomal activity against Schistosoma mansoni LE infected in BALB/c mouse assessed as reduction in worm burden at 100 mg/kg, ip administered for 5 consecutive days starting from day 37 post infection by microscopic method relative to control; design: scale not given: the % may be the effect or the level left
[13] = system: Schistosoma mansoni; assay: Antischistosomal activity against Schistosoma mansoni LE schistosomula measured every 24 hrs for 72 hrs by inverted microscopy
[14] = system: Schistosoma mansoni; assay: Antischistosomal activity against Schistosoma mansoni LE infected in BALB/c mouse assessed as reduction in egg burden at 50 mg/kg, ip administered for 5 consecutive days starting from day 1 post infection by microscopic method relative to control; design: scale not given: the % may be the effect or the level left
[15] = system: Schistosoma mansoni; assay: Antischistosomal activity against Schistosoma mansoni LE infected in BALB/c mouse assessed as reduction in worm burden at 50 mg/kg, ip administered for 5 consecutive days starting from day 23 post infection by microscopic method relative to control; design: scale not given: the % may be the effect or the level left
[16] = system: Schistosoma mansoni; assay: Antischistosomal activity against Schistosoma mansoni LE infected in BALB/c mouse assessed as reduction in egg burden at 10 mg/kg, ip administered for 5 consecutive days starting from day 23 post infection by microscopic method relative to control; design: scale not given: the % may be the effect or the level left
[17] = system: Schistosoma mansoni; assay: Antischistosomal activity against Schistosoma mansoni LE infected in BALB/c mouse assessed as reduction in egg burden at 50 mg/kg, ip administered for 5 consecutive days starting from day 37 post infection by microscopic method relative to control; design: scale not given: the % may be the effect or the level left
[18] = system: Schistosoma mansoni; assay: Antischistosomal activity against Schistosoma mansoni LE infected in BALB/c mouse assessed as reduction in egg burden at 10 mg/kg, ip administered for 5 consecutive days starting from day 37 post infection by microscopic method relative to control; design: scale not given: the % may be the effect or the level left
[19] = system: Schistosoma mansoni; assay: Antischistosomal activity against Schistosoma mansoni LE infected in BALB/c mouse assessed as reduction in egg burden at 100 mg/kg, ip administered for 5 consecutive days starting from day 1 post infection by microscopic method relative to control; design: scale not given: the % may be the effect or the level left
[20] = system: Schistosoma mansoni; assay: Antischistosomal activity against Schistosoma mansoni LE infected in BALB/c mouse assessed as reduction in worm burden at 10 mg/kg, ip administered for 5 consecutive days starting from day 37 by microscopic method relative to control; design: scale not given: the % may be the effect or the level left
[21] = system: Schistosoma mansoni; assay: Antischistosomal activity against Schistosoma mansoni LE infected in BALB/c mouse assessed as reduction in worm burden at 10 mg/kg, ip administered for 5 consecutive days starting from day 23 by microscopic method relative to control; design: scale not given: the % may be the effect or the level left
[22] = system: Schistosoma mansoni; assay: Antischistosomal activity against Schistosoma mansoni LE assessed as reduction in egg development by measuring developed eggs at 100 uM measured after 5 days relative to control; design: scale not given: the % may be the effect or the level left; details: time 5 day
[23] = system: Schistosoma mansoni; assay: Antischistosomal activity against Schistosoma mansoni LE infected in BALB/c mouse assessed as reduction in worm burden at 100 mg/kg, ip administered for 5 consecutive days starting from day 23 post infection by microscopic method relative to control; design: scale not given: the % may be the effect or the level left
[24] = system: Schistosoma mansoni; assay: Antischistosomal activity against Schistosoma mansoni LE infected in BALB/c mouse assessed as reduction in worm burden at 10 mg/kg, ip administered for 5 consecutive days starting from day 1 post infection by microscopic method relative to control; design: scale not given: the % may be the effect or the level left
[25] = system: Schistosoma mansoni; assay: Antischistosomal activity against Schistosoma mansoni LE infected in BALB/c mouse assessed as reduction in worm burden at 50 mg/kg, ip administered for 5 consecutive days starting from day 37 post infection by microscopic method relative to control; design: scale not given: the % may be the effect or the level left
[26] = system: Schistosoma mansoni; assay: Antischistosomal activity against Schistosoma mansoni BH assessed as tegument damage at 3.125 to 25 ug/ml measured up to 120 hrs by inverted microscopic method relative to control; details: dose 3.125-25 µg/ml; time hrs <=120; at 3.125 to 25 µg/mL
[27] = system: Schistosoma mansoni; assay: Antischistosomal activity against Schistosoma mansoni BH assessed as changes in motor activity at 3.125 to 25 ug/ml measured up to 120 hrs by inverted microscopic method relative to control; details: dose 3.125-25 µg/ml; time hrs <=120; at 3.125 to 25 µg/mL
[28] = system: Schistosoma mansoni; assay: Antischistosomal activity against adult Schistosoma mansoni BH infected in Balb/C mouse assessed as reduction in worm burden at 100 mg/kg, po measured after 2 weeks; design: scale not given: the % may be the effect or the level left
[29] = system: Schistosoma mansoni; assay: Antischistosomal activity against juvenile Schistosoma mansoni BH infected in Balb/C mouse assessed as reduction in worm burden at 100 mg/kg, po measured after 2 weeks; design: scale not given: the % may be the effect or the level left
[30] = system: Schistosoma mansoni; assay: Antischistosomal activity against Schistosoma mansoni BH infected in Balb/C mouse assessed as reduction in worm burden at 100 mg/kg, po measured after 2 weeks by Kato-Katz quantitative method; details: Schistosoma mansoni, BH, po, 336 h

COc1cc([C@@H]2OC(=O)[C@@H]3[C@H]2C(=O)O[C@H]3c2ccc(O)c(OC)c2)ccc1O
Activity [1]: 25% | Activity [2]: 25%

O=C1OC[C@@H](Cc2cc3c(cc2[N+](=O)[O-])OCO3)[C@@H]1Cc1cc2c(cc1[N+](=O)[O-])OCO2
Activity [3]: 40% | LC50 [4]: 102 µM | Activity [5]: 39% | Activity [6]: 52% | Activity [7]: 16% | LC50 [8]: 180 µM | Activity [9]: >83% | Activity [10]: 16% | Activity [11]: 36% | Activity [12]: 39% | LC50 [13]: 20.4 µM | Activity [14]: 52% | Activity [15]: 36% | Activity [16]: 40% | Activity [17]: 52% | Activity [18]: 40% | Activity [19]: 16% | Activity [20]: 33% | Activity [21]: 33% | Activity [22]: <10% | Activity [23]: 39% | Activity [24]: 33% | Activity [25]: 36%

Cn1cncc1C[C@H]1CCC(=O)[C@H]1C(O)c1ccccc1 (stereo not given in full)
Activity [26]: 100% | Activity [27]: 100% | Activity [28]: 60.6% | Activity [29]: 58% | mortality at 100 mg/kg [30]: 64.1%
